Assay results: patent US20190352297A1, “SELECTIVE AURORA A KINASE INHIBITORS” (UNIVERSITAT BERN, priority 2017, published 2019)
“Also recorded” adds a separate entry of the source.

Key:
[1] = biological target: T1, Aurora A / TPX2 (1-43) (Homo sapiens, UniProt O14965); assay: Microscale thermophoresis, Aurora A binding to labeled TPX2 1-43; details: excess 9, three independent measurements
T1 construct: human Aurora A kinase domain (residues 122-403 in the pET24-d vector); His-tag (cleaved yes); made in house; host or cells: E. coli BL21 (DE3) Rosetta (Aurora A); E. coli Bl21 (DE3) (TPX2)
T1 sequence (O14965 122-403): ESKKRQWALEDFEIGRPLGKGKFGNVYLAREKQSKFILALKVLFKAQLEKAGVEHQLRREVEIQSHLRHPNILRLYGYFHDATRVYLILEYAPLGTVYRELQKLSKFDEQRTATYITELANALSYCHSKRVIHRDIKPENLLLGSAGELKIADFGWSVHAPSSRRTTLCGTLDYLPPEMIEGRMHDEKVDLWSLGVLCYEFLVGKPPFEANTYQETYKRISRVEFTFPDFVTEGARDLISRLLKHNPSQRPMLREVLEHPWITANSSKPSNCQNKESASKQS
Method: TPX2 was labelled using the Monolith NT.115 protein labelling kit RED (NanoTemper Technologies). The labelling was performed according to the manufacturer's instructions in the supplied labelling buffer applying a concentration of 44 μM peptide at room temperature for 30 min. Labelled TPX2 was adjusted to 400 nM with final buffer and 0.05% Tween-20 (NanoTemper Technologies). Aurora A kinase with or without ligand was dissolved in final buffer supplemented with 0.05% Tween-20, and a series of 12 dilutions (1:1) was prepared in the identical buffer, keeping the DMSO/ligand concentration constant (final concentrations 0.5% and 125 μM, respectively). Final protein concentrations were between 4.4 nM and 150 μM. […] Thermophoresis was measured at room temperature with 5 s/30 s/5 s laser off/on/off times. […] Data of three independent measurements were analyzed (NT.Analysis software, version 1.5.41, NanoTemper Technologies) using the thermophoresis signal after 10 sec. Points measured above 4.7 μM Aurora A were rejected.

[2] = biological target: T2, AuroraB/INCENP complex (Homo sapiens, UniProt Q96GD4); assay: HTRF kinase assay, AuroraB/INCENP complex; format: biochemical
T2 construct: purchased Millipore 14-835
Method: Aurora A and AuroraB kinases were assayed using the homogeneous time-resolved fluorescence (HTRF) KinEASE STK2 kit from Cisbio (France). […] For both enzymes, the reactions were run for 30 min at room temperature and stopped by the addition of 10 μL of detection buffer containing EDTA, antiphospho-Ser/Thr antibody labelled with europium cryptate, and XL-665 conjugated streptavidin (62.5 nM final concentration). After incubation at room temperature for one hour, fluorescence was measured at 620 nm (europium cryptate) and 665 nm (XL-665) after excitation at 317 nm (lag time 60 μs, integration time 500 μs) using a Tecan Infinite M1000 PRO microplate reader (Greiner 384-well plates, white, non-binding, small volume). The ratio of fluorescence (665 nm/620 nm) was calculated for each well and the results were expressed as follows: specific signal=ratio (sample)−ratio (negative control), where ratio=665 nm/620 nm×10^4. Compounds were measured in threefold serial dilutions at 10 different concentrations, covering the concentration range from no to full inhibition. Each concentration was measured in duplicates, and two independent determinations were made for each IC50 value. IC50 curves were generated using a four-parameter logistic model (XLfit from IDBS).

[3] = test system: Aurora A localization, HeLa Kyoto cells; assay: Aurora A localization at the mitotic spindle (immunofluorescence); format: cell-based, human; details: overnight
Method: (§1) HeLa Kyoto cells were cultured in high-glucose DMEM with GlutaMAX (Life Technologies) media supplemented with 10% fetal calf serum (FCS) in a humidified 5% CO2 incubator at 37° C. For plasmid transfections, cells were seeded at 80-90% confluence. 4 μg of plasmid DNA in 100 μl OptiMEM and 4 μl of Lipofectamine 2000 (Life Technologies) in 100 μl OptiMEM were incubated in parallel for 5 minutes, mixed for 20 minutes and added to each well. All Aurora A clones were constructed using full-length Aurora A as a template with appropriate PCR primer pairs. […] GFP-Aurora AR137A and GFP-Aurora AW277A were engineered using a site directed mutagenesis kit (Agilent Technologies, no. 210515) with appropriate primers. For determining the mitotic index and the chromosome misalignment phenotype, cells were incubated with various concentrations of compounds for 20 h before analysis. Cells were likewise treated with 0.25 μM MLN8237 (Selleckchem, no. S1133) or 5 μM ZM447439 (Selleckchem, no. S1103). For flow cytometry analysis, 50 nM […] and 2.5 μM ZM447439 were used. For rescue experiments, HeLa Kyoto cells were first transfected with GFP-Aurora A, GFP-Aurora AR137A or GFP-Aurora AW277A for 20 h, followed by incubation with 9 for another 20 h before cells were fixed with cold methanol and stained. To assess the impact of compound 9 on cell cycle progression, DNA content was analyzed after propidium iodide staining using FACS (BD Accuri C6 flow cytometer).
Secondary antibodies were anti-mouse conjugated to Alexa488 or Alexa568, as well as anti-rabbit conjugated to Alexa488 or Alexa568, all used at 1:500 (Invitrogen). Confocal images were acquired on a Zeiss LSM 710 confocal microscope equipped with a Axiocam MRm (B/VVW) CCD camera using a 63×NA 1.0 oil objective and processed in ImageJ and Adobe Photoshop, maintaining relative image intensities within a series.

[4] = biological target: T3, Aurora A (Trp277) (Homo sapiens, UniProt O14965); assay: Intrinsic tryptophan fluorescence; format: binding
T3 construct: human Aurora A kinase domain (residues 122-403 in the pET24-d vector); His-tag (cleaved yes); made in house; host or cells: E. coli BL21 (DE3) Rosetta
T3 sequence (O14965 122-403): T1 sequence (O14965 122-403)
Method: Binding experiments were performed by mixing Aurora A (500 nM, 375 nM, and 150 nM for 77, 9, and 88, respectively) with varying concentrations (0-100 μM) of the different compounds in buffer (final DMSO concentration 1%), followed by incubation for 15 min at room temperature. Tryptophan fluorescence spectra were recorded at room temperature using an Infinite M1000 Pro plate reader (Tecan) and Corning 96 well half area, flat bottom, non-binding surface, black polystyrene plates. Excitation occurred at 284 nm (bandwidth ±5 nm) and emission at 340 nm (bandwidth ±10 nm). The gain was calculated from the well with the highest protein concentration. Each measurement was done in triplicate.

[5] = In vitro reactivity towards glutathione (GSH); format: physicochemical; details: after 24 h with 5 mM GSH, pH 7.4, 37° C.
Method: […] Reaction scheme and structures of modified analogs. b. LC chromatogram of the reaction mixture after t=0 h and t=14 h. […] 9-methylcarbazole (tret=2.44 min) was used as internal control. c. Concentration of compound 9 during the course of the reaction as determined by integration of the absorption peaks (at 310 nm) of compound 9 at tret=1.78 min. The average of two independent experiments is shown, SD is <5% for all data points. d. Aurora A inhibition in the HTRF biochemical assay. (d) Cellular pThr288 Aurora-A levels of cells incubated with 9 or rac-92 overnight at the indicated concentrations. The experiment was repeated twice and the error bars represent SD. […] Numbers represent average IC50±SD of two independent experiments.

[6] = test system: HeLa Kyoto cells; assay: DNA content analysis by flow cytometry; format: cell-based, human; details: 48 h, 9 even at 10 μM
Method: as §1, with “For rescue experiments, HeLa Kyoto cells were first transfected with GFP-Aurora A, GFP-Aurora AR137A or GFP-Aurora AW277A for 20 h, followed by incubation with 9 for another 20 h before cells were fixed with cold methanol and stained.” left out

T2 sequence (Q96GD4 whole entry): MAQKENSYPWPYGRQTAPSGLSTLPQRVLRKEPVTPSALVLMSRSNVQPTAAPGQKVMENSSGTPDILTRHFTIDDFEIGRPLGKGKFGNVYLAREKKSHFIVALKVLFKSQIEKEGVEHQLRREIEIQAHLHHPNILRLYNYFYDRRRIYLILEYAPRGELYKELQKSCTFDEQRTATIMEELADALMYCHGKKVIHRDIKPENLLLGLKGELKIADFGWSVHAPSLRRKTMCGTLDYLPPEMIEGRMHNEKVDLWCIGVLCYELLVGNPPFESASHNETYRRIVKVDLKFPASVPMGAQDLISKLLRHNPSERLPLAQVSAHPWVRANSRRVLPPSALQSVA
T2 sequence (Q9NQS7 whole entry partner): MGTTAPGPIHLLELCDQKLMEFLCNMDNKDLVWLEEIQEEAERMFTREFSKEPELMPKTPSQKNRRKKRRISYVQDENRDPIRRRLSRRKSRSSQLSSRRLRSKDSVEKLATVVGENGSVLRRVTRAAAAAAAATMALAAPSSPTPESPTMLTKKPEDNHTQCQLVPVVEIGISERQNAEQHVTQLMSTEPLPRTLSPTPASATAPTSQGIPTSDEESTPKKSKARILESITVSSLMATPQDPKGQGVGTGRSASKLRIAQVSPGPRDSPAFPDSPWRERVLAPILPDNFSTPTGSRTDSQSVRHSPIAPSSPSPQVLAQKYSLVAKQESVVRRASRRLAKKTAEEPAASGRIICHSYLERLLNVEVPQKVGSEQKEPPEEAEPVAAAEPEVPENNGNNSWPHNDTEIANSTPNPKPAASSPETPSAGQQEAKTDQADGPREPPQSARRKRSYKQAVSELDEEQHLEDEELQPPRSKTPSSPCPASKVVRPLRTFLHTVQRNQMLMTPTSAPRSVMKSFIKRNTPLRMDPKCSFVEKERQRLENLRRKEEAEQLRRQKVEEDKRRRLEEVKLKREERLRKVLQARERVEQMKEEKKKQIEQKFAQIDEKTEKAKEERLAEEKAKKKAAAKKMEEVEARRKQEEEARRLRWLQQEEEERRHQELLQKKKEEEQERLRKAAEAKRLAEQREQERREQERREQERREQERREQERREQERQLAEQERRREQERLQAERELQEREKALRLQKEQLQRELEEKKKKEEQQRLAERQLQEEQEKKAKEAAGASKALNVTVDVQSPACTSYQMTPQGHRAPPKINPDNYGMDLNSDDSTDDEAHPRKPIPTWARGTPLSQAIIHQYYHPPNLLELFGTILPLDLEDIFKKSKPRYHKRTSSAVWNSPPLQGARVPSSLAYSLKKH

CCc1ccc(N=C2SC(=Cc3ccnc(Nc4ccc(C(=O)O)cn4)c3)C(=O)N2C)cc1 [Compound 9]
binding of Aurora to labeled TPX2 1-43 in the presence of inhibitor [1]: abolished | IC50 ([2]; 20 μM ATP, HTRF, read-out: IC50 Aurora B in complex with INCENP (biochemical)): 149 ± 3 nM | weaker inhibition of Aurora B/INCENP compared to KD measured with free Aurora B ([2]; IC50 Aurora B/INCENP versus KD free Aurora B): 15 fold | Aurora A localization at spindle microtubules and centrosomes [3]: notably displaced from the spindle microtubules; also recorded: impairs Aurora A localization at the spindle microtubules | tryptophan fluorescence, environment of Trp277 [4]: perturbed the environment of Trp277 | conversion to GSH adduct [5]: 50% | accumulation of cells with 8N and 16N DNA contents [6]: did not occur
